Assays:
mTORC1 = mTORC1 activity assay: rpS6 phosphorylation (AlphaScreen SureFire) in C2C12 myotubes; format: cell-based, mouse; set-up: key to mTOR: statistically significant assay result: statistically significant assay results between 2X and 5X doses; ns - not significant; NT - not tested; settings: for Avg fold change of intracellular rpS6 phosphorylation (P-rpS6) compared to untreated cells: C2C12 myotubes, 30 min, normalized to total protein; for mTOR: statistically significant assay result: between 2X and 5X doses, compared to untreated control
Text: Metabolism is controlled by the mTORC1 signaling complex, an essential protein kinase that regulates cellular processes such as protein synthesis and autophagy. A number of distinct signals control mTORC1 activity, including amino acids and growth factors like insulin, and proper regulation is necessary for the maintenance of muscle mass. Dysregulation of mTORC1 activity is associated with muscle wasting (atrophy) in many diseases, and conversely, addition of muscle mass (hypertrophy) requires protein synthesis-inducing mTORC1 signaling. The ability of different amino acids to induce mTORC1 signaling in myotubes was assessed using an alpha-elisa screen for phosphorylated ribosomal protein S6 (P-rpS6), an important substrate downstream of mTORC1 involved in promoting protein synthesis.
In this example, murine muscle cells were incubated with a composition including amino acids and assessed for mTORC1 activation. C2C12, mouse muscle cells, were obtained from ATCC (CRL-1772, Manassas, VA). The cells were seeded on day 0 at 1.0E4 cells per well in 96-well TC-treated microplates (Corning, Corning, NY) in Dulbecco's Modified Eagle Medium (DMEM, Corning) supplemented with 10% fetal bovine serum (Corning) and 0.2% Primocin (InVivoGen, San Diego, Calif.) and incubated for 48 hours at 37° C., 5% CO2. On day 2, the medium was changed to DMEM (Corning) supplemented with 2% horse serum (Horse Serum, New Zealand origin, ThermoFisher, Waltham, MA) and 0.2% Primocin. On day 5, the medium was replaced with fresh DMEM supplemented with 2% horse serum and 0.2% Primocin.
On day 7, the DMEM supplemented with 2% horse serum and 0.2% Primocin was replaced with amino acid free DMEM (US Biologicals, Salem, Mass.) containing a defined custom amino acid concentration based on 0.5× the mean physiological concentrations in blood based on values published in the Human Metabolome Database (HMDB (Wishart DS, Tzur D, Knox C, et al., HMDB: the Human Metabolome Database. Nucleic Acids Res. 2007 January; 35 (Database issue):D521-6. 17202168), with 25 mM Glucose, 1 mM Sodium Pyruvate and incubated for 2 hours at 37° C., 5% CO2. Next, the cell medium was replaced with amino acid free DMEM (US Biologicals, Salem, Mass.) containing a defined custom amino acid concentration based on 0.5× the mean physiological concentrations in blood based on values published in the HMDB and a dose curve of defined amino acid compositions listed in Table 5 at 4 doses relative to plasma levels (1×, 2×, 5× and 10×; as defined by mean amino acid concentrations in the HMDB database). Combinations containing N-acetylcysteine were dosed with 0.2 mM. Cells were treated for 30 min at 37° C., 5% CO2. After treatment, the cells were washed lx in 100uL cold phosphate-buffered saline 1×, pH 7.2 (PBS, ThermoFisher). For the detection of the intracellular rpS6 phosphorylation, the AlphaScreen SureFire cellular kinase assay kit (rpS6 ([…]) and the AlphaScreen protein A kit (PerkinElmer, Waltham, Mass.) were used.
Data are presented as fold change of intracellular rpS6 phosphorylation in C2C12 myotubes normalized to the total protein amount compared to untreated cells. […] Statistical significance was determined by one-way ANOVA for each composition dose relative to untreated.

C2C12 myotubes = experiment: Myotube growth assay: myotube area in C2C12 myotubes; format: cell-based, murine; set-up: key to GROWTH: statistically significant assay result: statistically significant assay results between 2X and 5X doses; ns - not significant; NT - not tested; settings: for myotube growth dose response, Avg myotube area normalized to nuclear count: untreated = 1.000; for GROWTH: statistically significant assay result: between 2X and 5X doses, compared to untreated control
Text: Myotubes are multi-nucleated and elongated cells that express master regulators of skeletal muscle gene expression including MyoD and Myogenin. Myotubes are formed by differentiating myoblasts (muscle progenitor cells) for approximately 1 week. Once formed, myotubes size can be promoted (e.g. insulin) or inhibited (e.g. myostatin) with various molecules in order to assess effects on muscle size in vitro. C2C12 cells are commonly-used murine myogenic cells that upon differentiation form myotubes. C2C12 myotubes were used to test whether specific amino acid compositions can promote growth in vitro.
C2C12 murine myoblast cells (ATCC CRL-1772) were seeded on day 0 at 1.0E4 cells per well in collagen I coated 96-well optical polymer microplates (ThermoFisher) in Dulbecco's Modified Eagle Medium (DMEM, Corning) supplemented with 10% heat inactivated fetal bovine serum (HI-FBS, Atlanta Biologicals) and 0.2% Primocin (InVivoGen) and incubated overnight at 37° C., 5% CO2. On day 1, media was washed and differentiation media (DMEM supplemented with 2% horse serum) was added to the cells and fresh differentiation media was also applied on Day 3. On Day 6, cells were washed with amino acid-free DMEM and then treated with basal growth media containing 0.2% dialyzed FBS and all amino acids at 0.25× concentrations found in plasma based on values reported in the Human Metabolome Database (HMDB).
Fresh growth media and AA treatments were applied a second time on Day 8. On day 10, media was removed and cells were incubated in pre-warmed 4% Paraformaldehyde in PBS for 12 mins at room temperature and then washed 3× in PBS. Immunostaining with MHC (MF-20, University of Iowa Developmental Hybridoma Studies bank) was performed according to cell signaling general immunofluorescence protocol. Briefly, fixed cells were incubated in blocking buffer (5% normal goat serum 0.3% triton PBS) for 30-60 minutes, and then incubated overnight at 4° C. in primary antibody 1:1000 in antibody dilution buffer (1% BSA 0.3% triton in PBS). The next day the plate was equilibrated to room temperature, washed 3 times for 5 minutes in room temperature PBS and then with secondary antibody (Fab′ anti-mouse Alexa488, 1:2000) in antibody dilution buffer for 1-2 hours. Cells were washed 2 times for 5 minutes, incubated in Hoechst stain (Mol Probes 1:4000) for 10 minutes at room temperature, and washed an additional 2 times five minutes each in PBS. Molecular device HCS was used for image acquisition and analysis. Imaging was performed with a 10× wide field objective at both GFP and UV channels (FITC and DAPI) and analysis was performed using a modified version of the angiogenesis module in the MetaExpress Software measuring average total myotube area, myotube breadth, total nuclear counts, fused nuclear counts, and unfused nuclear counts.

[1] = tested on: C2C12 murine myoblast cells; experiment: Myogenesis assay: myotube differentiation of C2C12 myoblasts, MHC immunostaining; format: cell-based; set-up: key to MYOGENESIS: statistically significant assay result: statistically significant assay results between 2X and 5X doses; ns - not significant; NT - not tested; settings: for myogenesis dose response, Avg fold-change to untreated: C2C12 myoblasts differentiated 4 days
Text: Myogenesis is the process of forming skeletal muscle fibers (myofibers) which contain the minimal contractile units (sarcomeres) responsible for force transduction and load bearing in higher eukaryotes. During development single nucleated myogenic cells fuse, differentiate, and induce expression of the cytoskeletal complexes required for muscle contraction. A highly similar process is induced in response to muscle injury where satellite cells, or skeletal muscle stem cells, are activated, differentiate and fuse with damaged myofibers, thereby contributing myonuclei and supporting muscle repair. C2C12 cells are murine myogenic cells that, upon differentiation, fuse to form multi-nucleated myotubes (primitive myofibers) that express master regulators of muscle-specific gene expression, for example myosin heavy chain, a critical component of sarcomeres. C2C12 cells were selected as a model of myogenesis and used to test whether specific amino acid compositions would promote formation of myotubes and expression of the myotube-specific marker myosin heavy chain.
C2C12 murine myoblast cells were obtained from ATCC (CRL-1772) and seeded on day 0 at 1.0E4 cells per well in collagen I coated 96-well optical polymer microplates (ThermoFisher) in Dulbecco's Modified Eagle Medium (DMEM, Corning) supplemented with 10% heat inactivated fetal bovine serum (HI-FBS, Atlanta Biologicals) and 0.2% Primocin (InVivoGen) and incubated overnight at 37° C., 5% CO2. […] Cells were differentiated for 4 days at 37° C., 5% CO2 with a media replenishment and an additional amino acid composition or control treatment on Day 3. On day 5, the media was removed and cells were incubated in pre-warmed 4% Paraformaldehyde in PBS for 12 mins at room temperature and then washed 3× in PBS.
Immunostaining with MHC (MF-20, University of Iowa Developmental Hybridoma Studies bank) was performed according to cell signaling general immunofluorescence protocol. Briefly, fixed cells were incubated in blocking buffer (5% normal goat serum 0.3% triton PBS) for 30 to 60 minutes, and then incubated overnight at 4° C. in primary antibody 1:1000 in antibody dilution buffer (1% BSA 0.3% triton in PBS). The next day the plate was equilibrated to room temperature, washed 3 times for 5 minutes in room temperature PBS and then with secondary antibody (Fab' anti-mouse Alexa488, 1:2000) in antibody dilution buffer for 1-2 hours. Cells were washed two times for 5 minutes, incubated in Hoechst stain (Mol Probes 1:4000) for 10 minutes at room temperature, and washed an additional two times for five minutes each in PBS. Molecular device HCS was used for image acquisition and analysis. Imaging was performed with a 10× wide field objective at both GFP and UV channels (FITC and DAPI) and analysis was performed using a custom module in the MetaExpress Software measuring average FITC intensity, integrated FITC intensity, and nuclear counts.
The data is the average of 3 independent experiments.

[2] = dose 1X relative to plasma levels
[3] = dose 2X relative to plasma levels
[4] = dose 5X relative to plasma levels
[5] = dose 10X relative to plasma levels
[6] = C2C12 myotubes, dose 1.25X relative to plasma levels
[7] = C2C12 myotubes, dose 2.5X relative to plasma levels
[8] = C2C12 myotubes, dose 5X relative to plasma levels
[9] = C2C12 myotubes, dose 10X relative to plasma levels

SMILES: CC(=O)N[C@@H](CS)C(=O)O [Nac, N-acetylcysteine]
- Avg fold change of intracellular rpS6 phosphorylation (P-rpS6) compared to untreated cells (mTORC1; [2]): 0.9198 fold change
- Avg fold change of intracellular rpS6 phosphorylation (P-rpS6) compared to untreated cells (mTORC1; [3]): 0.8626 fold change
- Avg fold change of intracellular rpS6 phosphorylation (P-rpS6) compared to untreated cells (mTORC1; [4]): 0.8741 fold change
- Avg fold change of intracellular rpS6 phosphorylation (P-rpS6) compared to untreated cells (mTORC1; [5]): 0.9485 fold change
- mTOR: statistically significant assay result (mTORC1): ns
- myotube growth dose response, Avg myotube area normalized to nuclear count (C2C12 myotubes; [6]): 1.121
- myotube growth dose response, Avg myotube area normalized to nuclear count (C2C12 myotubes; [7]): 1.036
- myotube growth dose response, Avg myotube area normalized to nuclear count (C2C12 myotubes; [8]): 1.153
- myotube growth dose response, Avg myotube area normalized to nuclear count (C2C12 myotubes; [9]): 1.267
- GROWTH: statistically significant assay result (C2C12 myotubes): ns

SMILES: NC(=O)CC[C@H](N)C(=O)O [Q, glutamine]
- Avg fold change of intracellular rpS6 phosphorylation (P-rpS6) compared to untreated cells (mTORC1; [2]): 1.052 fold change
- Avg fold change of intracellular rpS6 phosphorylation (P-rpS6) compared to untreated cells (mTORC1; [3]): 0.9176 fold change
- Avg fold change of intracellular rpS6 phosphorylation (P-rpS6) compared to untreated cells (mTORC1; [4]): 0.8748 fold change
- Avg fold change of intracellular rpS6 phosphorylation (P-rpS6) compared to untreated cells (mTORC1; [5]): 0.8139 fold change
- mTOR: statistically significant assay result (mTORC1): ns
- myogenesis dose response, Avg fold-change to untreated ([1]; dose 1.25X relative to HMDB plasma levels): 1.127 fold-change
- myogenesis dose response, Avg fold-change to untreated ([1]; dose 2.5X relative to HMDB plasma levels): 1.066 fold-change
- myogenesis dose response, Avg fold-change to untreated ([1]; dose 5X relative to HMDB plasma levels): 1.087 fold-change
- myogenesis dose response, Avg fold-change to untreated ([1]; dose 10X relative to HMDB plasma levels): 1.041 fold-change
- MYOGENESIS: statistically significant assay result ([1]; between 2X and 5X doses, compared to untreated control): ns
- area of myotubes in the culture well (in words) (C2C12 myotubes; C2C12 myotubes, across two experiments): no effect or were inhibitory
- myotube growth dose response, Avg myotube area normalized to nuclear count (C2C12 myotubes; [6]): 1.235
- myotube growth dose response, Avg myotube area normalized to nuclear count (C2C12 myotubes; [7]): 1.202
- myotube growth dose response, Avg myotube area normalized to nuclear count (C2C12 myotubes; [8]): 1.075
- myotube growth dose response, Avg myotube area normalized to nuclear count (C2C12 myotubes; [9]): 1.077
- GROWTH: statistically significant assay result (C2C12 myotubes): ns

From patent US20180169047A1, “AMINO ACID COMPOSITIONS AND METHODS FOR THE TREATMENT OF MUSCLE DISEASES AND DISORDERS” (AXCELLA HEALTH INC., priority 2016, published 2018)
